Measurements: PMC11862924, “Phenylpyrazoles as Inhibitors of the m^6A RNA-Binding Protein YTHDF2” (JACS Au, 2025)
“Also recorded” adds a separate entry of the source.

Tests used:
[1] = molecular target: T1, YTHDF2 (residues 383–553) (Homo sapiens, UniProt Q9Y5A9); test: Fluorescence polarization (FP) assay, YTHDF2–m6A RNA interaction; format: binding; settings: 100 μM compound; YTHDF2 (residues 383–553, 20 nM), FAM-labeled m6A RNA probe 5 nM; average ± SD
T1 construct: A YTHDF2 YTH domain construct (residues 383–553) was subcloned to a pOPIN plasmid; made in house; host or cells: Escherichia coli BL21(DE3)
T1 sequence (Q9Y5A9 383-553): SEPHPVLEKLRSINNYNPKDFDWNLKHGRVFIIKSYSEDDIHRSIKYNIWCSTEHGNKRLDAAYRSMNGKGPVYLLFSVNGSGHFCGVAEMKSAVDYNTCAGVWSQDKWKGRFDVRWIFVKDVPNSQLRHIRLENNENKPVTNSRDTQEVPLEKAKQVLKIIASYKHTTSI
Experimental: The FP assay was performed in 384-well black plates (Corning no. 4514) with a total reaction volume of 15 μL. The final concentrations of protein (YTHDF2) and RNA were […], respectively, in a buffer containing 20 mM HEPES/KOH pH 7.5, 50 mM NaCl, 0.005% Tween 20, and 1 mM GSH (DTT). Compounds were incubated with protein, added FAM-m^6A RNA probe ([…](m6)ACUGUG) (purchased from IDT), and incubated at 4 °C for 30 min. The fluorescence polarization was measured using a plate reader (TECAN Spark) under an excitation wavelength of 485 nm and an emission wavelength of 535 nm with a bandwidth of 20 nm. […] The data were determined using GraphPad Prism 9.

YTHDF2 [2] = molecular target: T2, YTHDF2 (Homo sapiens, UniProt Q9Y5A9); test: Electrophoretic mobility shift assay (EMSA); format: binding; settings: for inhibition of the YTHDF2–m6A RNA interaction in EMSA at 100 μM (in words): 100 μM compound, 250 nM YTHDF2, FAM-labeled m6A RNA; for concentration-dependent inhibition of YTHDF2–m6A RNA complex formation in EMSA (in words): 3.1–100 μM compound, 250 nM YTHDF2, 20 nM FAM-labelled m6A RNA
T2 construct: A YTHDF2 YTH domain construct (residues 383–553) was subcloned to a pOPIN plasmid; made in house; host or cells: Escherichia coli BL21(DE3)
T2 sequence (Q9Y5A9 383-553): T1 sequence (Q9Y5A9 383-553)
Experimental: Compounds with different concentrations (3.1–100 μM) were incubated with 250 nM YTH-domain and 20 nM FAM-17mer-RNA in a buffer containing 20 mM HEPES, pH 8.2, 50 mM NaCl, 0.05% Triton X-100, and 5% v/v glycerol for 20 min at 4 °C. […] Gel imaging was performed in ChemiDoc MP (Bio-Rad), and Cy2/Alexa488 fluorescence was detected with a 1-min exposure time. Quantification of the gel image was performed by ImageJ.

YTHDF2 [3] = molecular target: T2, YTHDF2; test: nanoDSF thermal shift assay; format: binding; settings: for ΔTm at 5 µM: 5 μM compound; for ΔTm at 10 µM: 10 μM compound; for ΔTm at 25 µM: 25 μM compound
Experimental: NanoDSF was measured on a NanoTemper instrument (Prometheus NT.48). YTHDF2 protein was used at a concentration of 5 μM and incubated with 50, 25, 10, and 5 μM compound in buffer (100 mM KPi, pH 7.0, 250 mM NaCl, 10% Glycerol) for 50 min, in which 0.1% DMSO was used as the reference. The heat rate was set to 1 °C per minute, measured in a range between 20 and 90 °C.

[4] = MTT cytotoxicity assay, JAR; format: cell-based; settings: human, JAR cells, triplicates, read-out: Cytotoxicity against cancer cells (IC50), JAR
Experimental: (§1) JAR, K562, and HCT116 cells were seeded in 96-well plates (3500 cells/well) and incubated for 8 h. The medium with different concentrations of compounds (100, 33.3, 11.1, 3.7, 1.2, and 0.4 μM) was added to the 96-well plates. Data were normalized to the medium with 0.1% DMSO. After incubation for 72 h, MTT solution (5 mg/mL, 20 μL) was added per well in a dark environment and incubated for 4 h. After the medium was discarded, DMSO (150 μL) was added per well, and the absorbance was measured at 492 nm by a plate reader (TECAN Spark).

[5] = MTT cytotoxicity assay, K562; format: cell-based; settings: human, K562 cells, triplicates, read-out: Cytotoxicity against cancer cells (IC50), K562
Experimental: as §1

[6] = MTT cytotoxicity assay, HCT116; format: cell-based; settings: human, HCT116 cells, triplicates, read-out: Cytotoxicity against cancer cells (IC50), HCT116
Experimental: as §1

JAR = test: CCK-8 proliferation assay, JAR; format: cell-based; settings: Homo sapiens; CCK-8 kit assay, triplicates, 72 h; read-out: Anti-proliferation activity against cancer cells (IC50), JAR
Experimental: (§2) The JAR, K562, HCT116, and MOLM13 cells were seeded in 96-well plates (3000 cells/well). After being cultured overnight, compounds were added together with the DMSO treatment (0.1%) as a control. After 72 h, CCK-8 solution (Vazyme, A311) was added, and the cells were incubated at 37 °C for 4 h. The absorbance was measured at 450 nm using a plate reader (TECAN Spark).

K562 = test: CCK-8 proliferation assay, K562; format: cell-based; settings: Homo sapiens, CCK-8 kit assay, triplicates, 72 h, read-out: Anti-proliferation activity against cancer cells (IC50), K562
Experimental: as §2

HCT116 = test: CCK-8 proliferation assay, HCT116; format: cell-based; settings: Homo sapiens, HCT-116; CCK-8 kit assay, triplicates, 72 h; read-out: Anti-proliferation activity against cancer cells (IC50), HCT116
Experimental: as §2

YTHDF2 [7] = molecular target: T2, YTHDF2; design: method as in PMID 37236197; settings: read-out: IC50, YTHDF2, AlphaScreen; cited from earlier work
YTHDF2 YTH domain = molecular target: T3, YTHDF2 YTH domain (Homo sapiens, UniProt Q9Y5A9); test: AlphaScreen assay; settings: for inhibition at 100 μM in AlphaScreen: 100 μM compound; for inhibitory IC50 in AlphaScreen (in words): Figures S3 and S4
T3 sequence (Q9Y5A9 383-553): T1 sequence (Q9Y5A9 383-553)
Experimental: Initially, the YTHDF2 YTH domain at different concentrations (0–2500 nM) was incubated with varied concentrations of RNA probes (5’-Bi-CGAm6ACUGUC–3′, IDT company) (5, 25, 50, and 100 nM) in 25 mM Hepes (pH 7.5), 100 mM NaCl, and 0.1% BSA to probe the optimal ratio between protein and RNA before the detection signal reached saturation. The AlphaScreen Histidine Detection Kit (Nickel Chelate) (PerkinElmer) 6760619 M and white 384-well Optiplates (PerkinElmer) were used. Anti-His receptor beads (PerkinElmer) (final concentration: 20 μg/mL) and streptavidin donor beads (final concentration: 20 μg/mL) were first added. The reaction mixture was then incubated at room temperature in a dark environment for 1 h to reach equilibrium. The optical signal was detected using a Tecan plate reader.
The inhibitory activities of the phenylpyrazoles (at 100 µM) against YTHDF2 binders
in the amplified luminescent proximity homogeneous assay (AlphaScreen).
phenylpyrazoles featuring a 2 -hydroxybenzoyl moiety R1 (blue) and a 4 -carboxyphenyl moiety
represent average values ± s.d.

YTHDF1 = molecular target: T4, YTHDF1 (Homo sapiens, UniProt Q9BYJ9); design: method as in PMID 36268123; settings: read-out: EC50, YTHDF1, tryptophan quenching assay; cited from earlier work
T4 construct: Plasmids of the YTH domain of YTHDF1 (residues 375–552); made in house; host or cells: Escherichia coli BL21(DE3); plasmid from the Zhou lab (Boston College)
T4 sequence (Q9BYJ9 375-552): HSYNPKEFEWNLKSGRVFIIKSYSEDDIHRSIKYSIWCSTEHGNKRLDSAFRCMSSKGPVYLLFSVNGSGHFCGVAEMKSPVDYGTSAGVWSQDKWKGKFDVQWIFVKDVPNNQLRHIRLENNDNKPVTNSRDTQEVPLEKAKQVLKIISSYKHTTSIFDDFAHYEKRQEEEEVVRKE

YTHDF2 [8] = molecular target: T2, YTHDF2; design: method as in PMID 36268123; settings: read-out: EC50, YTHDF2, tryptophan quenching assay; cited from earlier work
METTL3 = test system: METTL3; design: method as in PMID 33902106; settings: cited from earlier work

Row | inhibition at 100 µM [1] [%] | concentration-dependent inhibition of YTHDF2–m6A RNA complex formation in EMSA (in words) (YTHDF2 [2]) | ΔTm at 5 µM (YTHDF2 [3]) [°C] | ΔTm at 10 µM (YTHDF2 [3]) [°C] | ΔTm at 25 µM (YTHDF2 [3]) [°C] | IC50 (K562) [µM] | IC50 (HCT116) [µM] | inhibition at 100 μM in AlphaScreen (YTHDF2 YTH domain) [%] | inhibitory IC50 in AlphaScreen (in words) (YTHDF2 YTH domain) | Molecule | inhibition of the YTHDF2–m6A RNA interaction in EMSA at 100 μM (in words) (YTHDF2 [2]) | IC50 at 72 h [4] [µM] | IC50 at 72 h [5] [µM] | IC50 at 72 h [6] [µM] | IC50 (JAR) [µM] | IC50 (YTHDF2 [7]) [µM] | EC50 (YTHDF1) [µM] | EC50 (YTHDF2 [8]) [µM] | inhibitory activity against METTL3 (in words) (METTL3)
1 | 34.4 ± 7.1 | dose-dependently inhibited | 0.3 ± 0.05 | 0.5 ± 0.14 | 0.48 ± 0.3 | > 50 | > 50 |  |  | O=C(O)c1ccc(-n2cc(C(=O)c3cc([N+](=O)[O-])ccc3O)cn2)cc1 [CK-62] | potent inhibition; also recorded: potently inhibited | 42.6 ± 18.5 | > 50 | > 50 | > 50 |  |  |  | 
2 | 14.2 |  |  |  |  | 24.5 ± 3.7 | 5.8 ± 0.9 |  |  | N#C/C(=C\c1ccc(-c2cccc(O)c2)s1)C(N)=O [DC-Y13–27, reference compound] |  |  |  |  | 33.3 ± 5.6 | 21.8 |  |  | 
3 | 41.8 ± 3.2 | dose-dependently inhibited | 0.15 ± 0.14 | 0.43 ± 0.11 | 1.48 ± 0.52 | 31.2 ± 8.9 | > 50 | > 80 | low double-digit micromolar | CC(C)c1ccc(O)c(C(=O)c2cnn(-c3ccc(C(=O)O)cc3)c2)c1 [CK-55] | potent inhibition; also recorded: potently inhibited | 44.4 ± 13.5 | 32.4 ± 22.1 | 49.5 ± 8.5 | > 50 |  |  |  | 
4 |  |  |  |  |  |  |  |  |  | O=c1c2ccccc2[se]n1-c1ccccc1 [Ebselen] |  |  |  |  |  |  | 1.6 | 1.7 | 
5 | 17.4 ± 10.5 | dose-dependently inhibited | 0.63 ± 0.08 | 1.42 ± 0.36 | 2.42 ± 0.24 | 45.5 ± 6.2 | > 50 |  |  | O=C(O)c1ccc(-n2cc(C(=O)c3ccc(Br)cc3O)cn2)cc1 [CK-70] | potent inhibition; also recorded: potently inhibited | > 50 | 42.1 ± 14.6 | 36.4 ± 2.8 | 48.5 ± 3.9 |  |  |  | 
6 | 37.4 ± 3.9 |  |  |  |  | > 50 | > 50 |  |  | O=C(O)c1ccc(-n2cc(C(=O)c3cc(F)ccc3O)cn2)cc1 [CK-56] | potent inhibition | 41.2 ± 14.1 | 23.9 ± 7.5 | 19.3 ± 2.5 | > 50 |  |  |  | 
7 | 41.1 ± 7.7 | dose-dependently inhibited | 0.47 ± 0.11 | 1.35 ± 0.66 | 2.27 ± 0.26 | 33.4 ± 3.3 | 41.6 ± 8.2 | > 80 | low double-digit micromolar | O=C(O)c1ccc(-n2cc(C(=O)c3cc(Cl)ccc3O)cn2)cc1 [CK-67] | potent inhibition; also recorded: potently inhibited | > 50 | 34.9 ± 13.4 | 48.5 ± 4.9 | 38.5 ± 9.2 |  |  |  | 
8 |  |  |  |  |  |  |  |  |  | STM2457 |  |  |  |  |  |  |  |  | nanomolar inhibitory activity
9 |  |  |  |  |  |  |  |  |  | O=C(NCc1ccc2cc(CNCC3CCC3)[nH]c2c1)c1cc(=O)n2ccccc2n1 [STC-15] |  |  |  |  |  |  |  |  | nanomolar inhibitory activity
10 | 63.2 ± 6.9 |  |  |  |  | 38.8 ± 3.7 | 47.2 ± 8.7 | > 80 | low double-digit micromolar | COc1ccc(O)c(C(=O)c2cnn(-c3ccc(C(=O)O)cc3)c2)c1 [CK-66] |  | > 50 | > 50 | > 50 | 47.3 ± 6.3 |  |  |  | 
